For three compounds, Kd and binding results are on record in paper PMC9596375 (2022).

For experiment [1], the system named is X2B2 (RNA, aptamer) GGAUACACAAGAGCGAUUGAAACUAAGUCUGUGUAUCC
In words: ITC. Particulars: 20 mM MgCl2; 10 mM Tris-HCl pH 7.5, 30 °C.

Experiment [2] concerns X2B2-C14U (RNA, aptamer) GGAUACACAAGAGUGAUUGAAACUAAGUCUGUGUAUCC
In words: ITC. The following applies: 20 mM MgCl2; 10 mM Tris-HCl pH 7.5, 30 °C.

In experiment [3] the test system is X2B2-C14U-dG13 (RNA, aptamer, 2'-deoxy at G13) GGAUACACAAGAGUGAUUGAAACUAAGUCUGUGUAUCC
In words: UV-Vis absorbance shift. Particulars: 30 mM MgCl2, 140 mM KCl, 10 mM NaCl; 50 mM Tris pH 7.0; ∆λmax 10.

Experiment [4] concerns X2B2-C14U-dU18 (RNA, aptamer, 2'-deoxy at U18) GGAUACACAAGAGUGAUUGAAACUAAGUCUGUGUAUCC
Description: UV-Vis absorbance shift. The following applies: 30 mM MgCl2, 140 mM KCl, 10 mM NaCl; 50 mM Tris pH 7.0; ∆λmax 7.

For experiment [5], the system named is X2B2-C14U-dG13-dU18 (RNA, aptamer, 2'-deoxy at G13 and U18) GGAUACACAAGAGUGAUUGAAACUAAGUCUGUGUAUCC
In words: UV-Vis absorbance shift. The following applies: 30 mM MgCl2, 140 mM KCl, 10 mM NaCl; 50 mM Tris pH 7.0; ∆λmax 7.

Experiment [6] has as its system 12.29 (RNA, aptamer) GGGAAAAGCGAAUCAUACACAAGAGCGAUUGAAACUAAGUCUGUGCUAUGUUCGUUAUCGCCGGUGGGGCAUAAGGUAUUUAAUUCCAUA
In words: in-line probing. Particulars: 30 mM MgCl2; 25 mM Tris pH 8.0, 37 °C, 18 h; 500 µM FAD.

Experiment [7] relates to 12.8 (RNA, aptamer) GGGAAAAGCGAAUCAUACACAAGAGUGUGACGCACUUUAUGAUCGGAGGCCGUCAUUGUAUGGCGUGGGCAUAAGGUAUUUAAUUCCAUA
Description: in-line probing. Particulars: 30 mM MgCl2; 25 mM Tris pH 8.0, 37 °C, 18 h; 500 µM FAD.

The subject of experiment [8] is Neg (RNA, other) GGAACUGCGAUCUAGUGAGACUGACUCGUGAUCGGA
Description: UV-Vis absorbance shift. The following applies: 30 mM MgCl2, 140 mM KCl, 10 mM NaCl; 50 mM Tris pH 7.0.

Experiment [9] concerns X2B2-D1 (RNA, aptamer) GGAUACACAAGAGCGAACGAAACUAAGUCUGUGUAUCC
Description: UV-Vis absorbance shift. Particulars: 30 mM MgCl2, 140 mM KCl, 10 mM NaCl; 50 mM Tris pH 7.0; 40 µM RNA, 40 µM FAD; ∆λmax 1.

Experiment [10] relates to X2B2-C1 (RNA, aptamer) GGAUACACAAGAGCGAACGAAACUAGUUCUGUGUAUCC
Description: UV-Vis absorbance shift. Particulars: 30 mM MgCl2, 140 mM KCl, 10 mM NaCl; 50 mM Tris pH 7.0; 40 µM RNA, 40 µM FAD; ∆λmax 0.

In experiment [11] the test system is X2B2-D2 (RNA, aptamer) GGAUACACAAGAGCACUUGAAACUAAGUCUGUGUAUCC
In words: UV-Vis absorbance shift. Particulars: 30 mM MgCl2, 140 mM KCl, 10 mM NaCl; 50 mM Tris pH 7.0; 40 µM RNA, 40 µM FAD; ∆λmax 4.

In experiment [12] the test system is X2B2-D3 (RNA, aptamer) GGAUACAGUAGAGCGAUUGAAACUAAGUCUGUGUAUCC
In words: UV-Vis absorbance shift. Particulars: 30 mM MgCl2, 140 mM KCl, 10 mM NaCl; 50 mM Tris pH 7.0; 40 µM RNA, 40 µM FAD; ∆λmax 5.

For experiment [13], the system named is X2B2-C3 (RNA, aptamer) GGAUACAGUAGAGCGAUUGAAACUAAGUCACUGUAUCC
Description: UV-Vis absorbance shift. Particulars: 30 mM MgCl2, 140 mM KCl, 10 mM NaCl; 50 mM Tris pH 7.0; 40 µM RNA, 40 µM FAD; ∆λmax 5.

Experiment [14] concerns X2B2-D4 (RNA, aptamer) GGAUAGCCAAGAGCGAUUGAAACUAAGUCUGUGUAUCC
In words: UV-Vis absorbance shift. Particulars: 30 mM MgCl2, 140 mM KCl, 10 mM NaCl; 50 mM Tris pH 7.0; 40 µM RNA, 40 µM FAD; ∆λmax 6.

The test system of experiment [15] is X2B2-C4 (RNA, aptamer) GGAUAGCCAAGAGCGAUUGAAACUAAGUCUGGCUAUCC
In words: UV-Vis absorbance shift. Particulars: 30 mM MgCl2, 140 mM KCl, 10 mM NaCl; 50 mM Tris pH 7.0; 40 µM RNA, 40 µM FAD; ∆λmax 7.

The test system of experiment [16] is X2B2-A10U (RNA, aptamer) GGAUACACAUGAGCGAUUGAAACUAAGUCUGUGUAUCC
Description: UV-Vis absorbance shift. The following applies: 30 mM MgCl2, 140 mM KCl, 10 mM NaCl; 50 mM Tris pH 7.0; 40 µM RNA, 40 µM FAD; ∆λmax 5.

For experiment [17], the system named is X2B2-G11U (RNA, aptamer) GGAUACACAAUAGCGAUUGAAACUAAGUCUGUGUAUCC
Description: UV-Vis absorbance shift. Particulars: 30 mM MgCl2, 140 mM KCl, 10 mM NaCl; 50 mM Tris pH 7.0; 40 µM RNA, 40 µM FAD; ∆λmax 0.

Experiment [18] has as its system X2B2-A12U (RNA, aptamer) GGAUACACAAGUGCGAUUGAAACUAAGUCUGUGUAUCC
In words: UV-Vis absorbance shift. Particulars: 30 mM MgCl2, 140 mM KCl, 10 mM NaCl; 50 mM Tris pH 7.0; 40 µM RNA, 40 µM FAD; ∆λmax 0.

In experiment [19] the test system is X2B2-G13U (RNA, aptamer) GGAUACACAAGAUCGAUUGAAACUAAGUCUGUGUAUCC
Description: UV-Vis absorbance shift. Particulars: 30 mM MgCl2, 140 mM KCl, 10 mM NaCl; 50 mM Tris pH 7.0; 40 µM RNA, 40 µM FAD; ∆λmax 1.

In experiment [20] the test system is X2B2-G19U (RNA, aptamer) GGAUACACAAGAGCGAUUUAAACUAAGUCUGUGUAUCC
In words: UV-Vis absorbance shift. The following applies: 30 mM MgCl2, 140 mM KCl, 10 mM NaCl; 50 mM Tris pH 7.0; 40 µM RNA, 40 µM FAD; ∆λmax 2.

The subject of experiment [21] is X2B2-A20U (RNA, aptamer) GGAUACACAAGAGCGAUUGUAACUAAGUCUGUGUAUCC
Description: UV-Vis absorbance shift. Particulars: 30 mM MgCl2, 140 mM KCl, 10 mM NaCl; 50 mM Tris pH 7.0; 40 µM RNA, 40 µM FAD; ∆λmax 0.

Experiment [22] has as its system X2B2-A21U (RNA, aptamer) GGAUACACAAGAGCGAUUGAUACUAAGUCUGUGUAUCC
Description: UV-Vis absorbance shift. The following applies: 30 mM MgCl2, 140 mM KCl, 10 mM NaCl; 50 mM Tris pH 7.0; 40 µM RNA, 40 µM FAD; ∆λmax 1.

Experiment [23] deals with X2B2-A22U (RNA, aptamer) GGAUACACAAGAGCGAUUGAAUCUAAGUCUGUGUAUCC
In words: UV-Vis absorbance shift. Particulars: 30 mM MgCl2, 140 mM KCl, 10 mM NaCl; 50 mM Tris pH 7.0; 40 µM RNA, 40 µM FAD; ∆λmax 2.

In experiment [24] the test system is X2B2-C23U (RNA, aptamer) GGAUACACAAGAGCGAUUGAAAUUAAGUCUGUGUAUCC
In words: UV-Vis absorbance shift. Particulars: 30 mM MgCl2, 140 mM KCl, 10 mM NaCl; 50 mM Tris pH 7.0; 40 µM RNA, 40 µM FAD; ∆λmax 2.

For experiment [25], the system named is X2B2-U24A (RNA, aptamer) GGAUACACAAGAGCGAUUGAAACAAAGUCUGUGUAUCC
Description: UV-Vis absorbance shift. Particulars: 30 mM MgCl2, 140 mM KCl, 10 mM NaCl; 50 mM Tris pH 7.0; 40 µM RNA, 40 µM FAD; ∆λmax 6.

Experiment [26] deals with X2B2-A25U (RNA, aptamer) GGAUACACAAGAGCGAUUGAAACUUAGUCUGUGUAUCC
Description: UV-Vis absorbance shift. The following applies: 30 mM MgCl2, 140 mM KCl, 10 mM NaCl; 50 mM Tris pH 7.0; 40 µM RNA, 40 µM FAD; ∆λmax 2.

In experiment [27] the test system is X2B2-C14U-U24A (RNA, aptamer) GGAUACACAAGAGUGAUUGAAACAAAGUCUGUGUAUCC
In words: UV-Vis absorbance shift. Particulars: 30 mM MgCl2, 140 mM KCl, 10 mM NaCl; 50 mM Tris pH 7.0; 40 µM RNA, 40 µM FAD; ∆λmax 1.

The subject of experiment [28] is X2B2-ΔA9 (RNA, aptamer) GGAUACACAGAGCGAUUGAAACUAAGUCUGUGUAUCC
Description: UV-Vis absorbance shift. The following applies: 30 mM MgCl2, 140 mM KCl, 10 mM NaCl; 50 mM Tris pH 7.0; 40 µM RNA, 40 µM FAD; ∆λmax 2.

In experiment [29] the test system is X2B2-C14U-ΔA9 (RNA, aptamer) GGAUACACAGAGUGAUUGAAACUAAGUCUGUGUAUCC
Description: UV-Vis absorbance shift. The following applies: 30 mM MgCl2, 140 mM KCl, 10 mM NaCl; 50 mM Tris pH 7.0; 40 µM RNA, 40 µM FAD; ∆λmax 8.

Experiment [30] relates to X2B2-ΔC14 (RNA, aptamer) GGAUACACAAGAGGAUUGAAACUAAGUCUGUGUAUCC
Description: UV-Vis absorbance shift. Particulars: 30 mM MgCl2, 140 mM KCl, 10 mM NaCl; 50 mM Tris pH 7.0; 40 µM RNA, 40 µM FAD; ∆λmax 1.

Experiment [31] relates to X2B2-C14A (RNA, aptamer) GGAUACACAAGAGAGAUUGAAACUAAGUCUGUGUAUCC
In words: UV-Vis absorbance shift. The following applies: 30 mM MgCl2, 140 mM KCl, 10 mM NaCl; 50 mM Tris pH 7.0; 40 µM RNA, 40 µM FAD; ∆λmax 5.

Experiment [32] relates to X2B2-C14G (RNA, aptamer) GGAUACACAAGAGGGAUUGAAACUAAGUCUGUGUAUCC
Description: UV-Vis absorbance shift. The following applies: 30 mM MgCl2, 140 mM KCl, 10 mM NaCl; 50 mM Tris pH 7.0; 40 µM RNA, 40 µM FAD; ∆λmax 2.

Experiment [33] has as its system X2B2-BT1 (RNA, aptamer) GGAUACAAACGAGCGAUUGAAACUAAGUCGUUGUAUCC
In words: UV-Vis absorbance shift. Particulars: 30 mM MgCl2, 140 mM KCl, 10 mM NaCl; 50 mM Tris pH 7.0; 40 µM RNA, 40 µM FAD; ∆λmax 5.

Experiment [34] relates to X2B2-C14U-BT1 (RNA, aptamer) GGAUACAAACGAGUGAUUGAAACUAAGUCGUUGUAUCC
In words: UV-Vis absorbance shift. Particulars: 30 mM MgCl2, 140 mM KCl, 10 mM NaCl; 50 mM Tris pH 7.0; 40 µM RNA, 40 µM FAD; ∆λmax 9.

With `Cc1cc2nc3c(=O)[nH]c(=O)nc-3n(C[C@H](O)[C@H](O)[C@H](O)CO)c2cc1C`, the Kd in experiment [1] was found to be 5333 ± 722 nM; in experiment [2] it was 885 ± 85 nM.

As for `Cc1cc2nc3c(=O)[nH]c(=O)nc-3n(C[C@H](O)[C@H](O)[C@H](O)COP(=O)(O)O)c2cc1C`, the results for the Kd in experiment [1] and in [2] were 1414 ± 97 nM and 243 ± 28 nM, respectively. Besides, the binding entry in experiment [3], in [4] and in [5] was “yes” in each case.

With `Cc1cc2nc3c(=O)[nH]c(=O)nc-3n(C[C@H](O)[C@H](O)[C@H](O)COP(=O)(O)OP(=O)(O)OC[C@H]3O[C@@H](n4cnc5c(N)ncnc54)[C@H](O)[C@@H]3O)c2cc1C`, the figures for the Kd in experiment [1] and in experiment [2] were 7244 ± 398 nM and 818 ± 32 nM, respectively. For the same compound, the binding entry in experiment [6] is recorded as “yes”; in experiment [7] it was “yes”; in experiment [8], “no”; in experiment [9], “no”; in [10], “no”; in experiment [11] it was “weak”. Moreover, the binding entry in experiment [12] is “yes”; in experiment [13] it was “yes”; in experiment [14], “yes”; in experiment [15], “yes”; in experiment [16] it was “yes”; in experiment [17], “no”. Also, the binding entry in [18] is “no”; in experiment [19], “no”; in [20] it was “weak”; in experiment [21], “no”; in experiment [22], “no”; in experiment [23], “weak”. The binding result in experiment [24] is “weak”; in experiment [25], “yes”; in experiment [26] it was “weak”; in [27], “no”; in experiment [28], “weak”; in experiment [29], “yes”. The binding entry is listed as “no” in [30]; “weak” in [31]; “weak” in experiment [32]; “weak” in experiment [33]; “yes” in experiment [34].
